Patent publication US20240208954A1, “OXADIAZOLE COMPOUND, PREPARATION METHOD THEREFOR, PHARMACEUTICAL COMPOSITION AND USE THEREOF” (SHANGHAI INSTITUTE OF MATERIA MEDICA, CHINESE ACADEMY OF …, priority 2020, published 2024)
Where “and” joins values, the source holds several entries; their conditions need not be identical. Equal entries are not always repeated. Where two headings read alike, the source gives them in different places.

How the values were obtained:
S1P receptor = assay: Subtype selectivity study of compound A1, overall statement; type: cell-based; conditions: especially for S1P1 and S1P5 subtypes
Protocol: The S1P receptor selectivity was tested for different subtypes using the method described in Experimental Example 1.

[1] = Preliminary assessment of in vivo pharmacokinetics in rats; conditions: for Vd: read-out: Vss; for concentration at 0.083 h / concentration at 0.25 h / concentration at 0.5 h / concentration at 1 h / concentration at 2 h / concentration at 4 h / concentration at 6 h / concentration at 8 h / concentration at 24 h: read-out: Plasma drug concentrations in rats; for MRT inf: read-out: MRT0-∞
[2] = rat, in vivo, rats, intravenous 2 mg/kg, mean
[3] = rat, plasma, iv, 2 mg/kg, rats, intravenous 2 mg/kg, individual animals 1-3
[4] = rat, plasma, iv, 2 mg/kg, rats, intravenous 2 mg/kg, mean
[5] = rat, plasma, po, 20 mg/kg, rats, intragastric 20 mg/kg, individual animals 4-6
[6] = rat, plasma, po, 20 mg/kg, rats, intragastric 20 mg/kg, mean
[7] = rats, intragastric 20 mg/kg, individual animals 4-6, listed as DC411151

## CC(C)Oc1ccc(-c2nc(-c3ccc(CN4CC(C(=O)O)C4)c4ccccc34)no2)cc1C#N.Cl [Compound A1, 1-((4-(5-(3-cyano-4-isopropoxyphenyl)-1,2,4-oxadiazol-3-yl)naphthalen-1-yl)methyl) azetidine-3-carboxylic acid hydrochloric acid]
S1P receptor
  selectivity for different S1P receptor subtypes: good selectivity
[1]; intragastric 20 mg/kg, 0.25 h, individual animals 4-6, listed as DC411151
  Plasma drug concentrations in rats: 1960 ng/mL and 696 ng/mL and 1150 ng/mL
[1]; intragastric 20 mg/kg, 0.5 h, individual animals 4-6, listed as DC411151
  Plasma drug concentrations in rats: 1570 ng/mL and 2600 ng/mL
[1]; intragastric 20 mg/kg, 1 h, individual animals 4-6, listed as DC411151
  Plasma drug concentrations in rats: 2070 ng/mL and 3070 ng/mL
[1]; intragastric 20 mg/kg, 2 h, individual animals 4-6, listed as DC411151
  Plasma drug concentrations in rats: 1220 ng/mL and 2150 ng/mL
[1]; intragastric 20 mg/kg, 4 h, individual animals 4-6, listed as DC411151
  Plasma drug concentrations in rats: 635 ng/mL and 841 ng/mL
[1]; intragastric 20 mg/kg, 6 h, individual animals 4-6, listed as DC411151
  Plasma drug concentrations in rats: 350 ng/mL and 289 ng/mL
[1]; intragastric 20 mg/kg, 8 h, individual animals 4-6, listed as DC411151
  Plasma drug concentrations in rats: 64.0 ng/mL and 57.0 ng/mL
[1]; intragastric 20 mg/kg, 24 h, individual animals 4-6, listed as DC411151
  Plasma drug concentrations in rats: 2.49 ng/mL and 2.92 ng/mL
[1]; intravenous 2 mg/kg, 0.083 h, individual animals 1-3, listed as DC411151, 2 mg/kg
  Plasma drug concentrations in rats: 3720 ng/mL and 3390 ng/mL
[1]; intravenous 2 mg/kg, 0.25 h, individual animals 1-3, listed as DC411151, 2 mg/kg
  Plasma drug concentrations in rats: 2650 ng/mL and 2700 ng/mL
[1]; intravenous 2 mg/kg, 0.5 h, individual animals 1-3, listed as DC411151, 2 mg/kg
  Plasma drug concentrations in rats: 1710 ng/mL and 1890 ng/mL
[1]; intravenous 2 mg/kg, 1 h, individual animals 1-3, listed as DC411151, 2 mg/kg
  Plasma drug concentrations in rats: 1110 ng/mL and 951 ng/mL
[1]; intravenous 2 mg/kg, 2 h, individual animals 1-3, listed as DC411151, 2 mg/kg
  Plasma drug concentrations in rats: 563 ng/mL and 528 ng/mL
[1]; intravenous 2 mg/kg, 4 h, individual animals 1-3, listed as DC411151, 2 mg/kg
  Plasma drug concentrations in rats: 138 ng/mL and 172 ng/mL
[1]; intravenous 2 mg/kg, 6 h, individual animals 1-3, listed as DC411151, 2 mg/kg
  Plasma drug concentrations in rats: 51.4 ng/mL and 47 ng/mL
[1]; intravenous 2 mg/kg, 8 h, individual animals 1-3, listed as DC411151, 2 mg/kg
  Plasma drug concentrations in rats: 13.6 ng/mL and 16.9 ng/mL
[1]; intravenous 2 mg/kg, 24 h, individual animals 1-3, listed as DC411151, 2 mg/kg
  Plasma drug concentrations in rats: BQL and 1.94 ng/ml
[1]; rat, in vivo, po, rats, intragastric 20 mg/kg, individual animals 4-6, read-out: Tmax
  Tmax: 1 h
[1]; rat, in vivo, po, rats, intragastric 20 mg/kg, mean, read-out: AUC0-t
  AUC0-t: 8780 ng·h/mL
[1]; rat, in vivo, po, rats, intragastric 20 mg/kg, mean, read-out: Cmax
  Cmax: 2760 ng/mL
[1]; [2]
  clearance: 8.66 mL/min/kg
  half-life: 3.04 h
  Vd: 0.758 L/kg
[1]; rat, plasma, iv, 2 mg/kg, intravenous 2 mg/kg, 0.083 h, individual animals 1-3
  concentration at 0.083 h: 3940 ng/mL
[1]; rat, plasma, iv, 2 mg/kg, intravenous 2 mg/kg, 0.083 h, mean
  concentration at 0.083 h: 3680 ng/mL
[1]; rat, plasma, iv, 2 mg/kg, intravenous 2 mg/kg, 0.25 h, individual animals 1-3
  concentration at 0.25 h: 2950 ng/mL
[1]; rat, plasma, iv, 2 mg/kg, intravenous 2 mg/kg, 0.25 h, mean
  concentration at 0.25 h: 2770 ng/mL
[1]; rat, plasma, iv, 2 mg/kg, intravenous 2 mg/kg, 0.5 h, individual animals 1-3
  concentration at 0.5 h: 1570 ng/mL
[1]; rat, plasma, iv, 2 mg/kg, intravenous 2 mg/kg, 0.5 h, mean
  concentration at 0.5 h: 1720 ng/mL
[1]; rat, plasma, iv, 2 mg/kg, intravenous 2 mg/kg, 1 h, individual animals 1-3
  concentration at 1 h: 900 ng/mL
[1]; rat, plasma, iv, 2 mg/kg, intravenous 2 mg/kg, 1 h, mean
  concentration at 1 h: 987 ng/mL
[1]; rat, plasma, iv, 2 mg/kg, intravenous 2 mg/kg, 2 h, individual animals 1-3
  concentration at 2 h: 419 ng/mL
[1]; rat, plasma, iv, 2 mg/kg, intravenous 2 mg/kg, 2 h, mean
  concentration at 2 h: 503 ng/mL
[1]; rat, plasma, iv, 2 mg/kg, intravenous 2 mg/kg, 4 h, individual animals 1-3
  concentration at 4 h: 128 ng/mL
[1]; rat, plasma, iv, 2 mg/kg, intravenous 2 mg/kg, 4 h, mean
  concentration at 4 h: 146 ng/mL
[1]; rat, plasma, iv, 2 mg/kg, intravenous 2 mg/kg, 6 h, individual animals 1-3
  concentration at 6 h: 45.8 ng/mL
[1]; rat, plasma, iv, 2 mg/kg, intravenous 2 mg/kg, 6 h, mean
  concentration at 6 h: 48.1 ng/mL
[1]; rat, plasma, iv, 2 mg/kg, intravenous 2 mg/kg, 8 h, individual animals 1-3
  concentration at 8 h: 11.8 ng/mL
[1]; rat, plasma, iv, 2 mg/kg, intravenous 2 mg/kg, 8 h, mean
  concentration at 8 h: 14.1 ng/mL
[1]; rat, plasma, iv, 2 mg/kg, intravenous 2 mg/kg, 24 h, individual animals 1-3
  concentration at 24 h: 1.16 ng/mL
[1]; rat, plasma, iv, 2 mg/kg, intravenous 2 mg/kg, 24 h, mean
  concentration at 24 h: 1.55 ng/mL
[1]; [3]
  AUC(0-inf): 3570 ng·h/mL
  clearance: 9.34 mL/min/kg
  MRT inf: 1.2 h
  Vd: 0.672 L/kg
[1]; rat, plasma, iv, 2 mg/kg, rats, intravenous 2 mg/kg, individual animals 1-3, read-out: AUC0-t
  AUC0-t: 3550 ng·h/mL
[1]; [4]
  AUC(0-inf): 3860 ng·h/mL
  MRT inf: 1.47 h
[1]; rat, plasma, iv, 2 mg/kg, rats, intravenous 2 mg/kg, mean, read-out: AUC0-t
  AUC0-t: 3850 ng·h/mL
[1]; rat, plasma, oral, 20 mg/kg, intragastric 20 mg/kg, 0.25 h, mean
  concentration at 0.25 h: 1270 ng/mL
[1]; rat, plasma, oral, 20 mg/kg, intragastric 20 mg/kg, 0.5 h, individual animals 4-6
  concentration at 0.5 h: 3130 ng/mL
[1]; rat, plasma, oral, 20 mg/kg, intragastric 20 mg/kg, 0.5 h, mean
  concentration at 0.5 h: 2430 ng/mL
[1]; rat, plasma, oral, 20 mg/kg, intragastric 20 mg/kg, 1 h, individual animals 4-6
  concentration at 1 h: 2560 ng/mL
[1]; rat, plasma, oral, 20 mg/kg, intragastric 20 mg/kg, 1 h, mean
  concentration at 1 h: 2570 ng/mL
[1]; rat, plasma, oral, 20 mg/kg, intragastric 20 mg/kg, 2 h, individual animals 4-6
  concentration at 2 h: 2290 ng/mL
[1]; rat, plasma, oral, 20 mg/kg, intragastric 20 mg/kg, 2 h, mean
  concentration at 2 h: 1890 ng/mL
[1]; rat, plasma, oral, 20 mg/kg, intragastric 20 mg/kg, 4 h, individual animals 4-6
  concentration at 4 h: 884 ng/mL
[1]; rat, plasma, oral, 20 mg/kg, intragastric 20 mg/kg, 4 h, mean
  concentration at 4 h: 787 ng/mL
[1]; rat, plasma, oral, 20 mg/kg, intragastric 20 mg/kg, 6 h, individual animals 4-6
  concentration at 6 h: 322 ng/mL
[1]; rat, plasma, oral, 20 mg/kg, intragastric 20 mg/kg, 6 h, mean
  concentration at 6 h: 320 ng/mL
[1]; rat, plasma, oral, 20 mg/kg, intragastric 20 mg/kg, 8 h, individual animals 4-6
  concentration at 8 h: 65.1 ng/mL
[1]; rat, plasma, oral, 20 mg/kg, intragastric 20 mg/kg, 8 h, mean
  concentration at 8 h: 62 ng/mL
[1]; rat, plasma, oral, 20 mg/kg, intragastric 20 mg/kg, 24 h, individual animals 4-6
  concentration at 24 h: 4.33 ng/mL
[1]; rat, plasma, oral, 20 mg/kg, intragastric 20 mg/kg, 24 h, mean
  concentration at 24 h: 3.25 ng/mL
[1]; rat, plasma, oral, rats, 20 mg/kg by gavage vs 2 mg/kg intravenous, read-out: absolute bioavailability
  bioavailability: 22.8%
[1]; rat, plasma, po, 20 mg/kg, rats, 20 mg/kg by gavage, range over animals, read-out: peak time Tmax
  Tmax: 0.5 to 1 h
[1]; [5]
  AUC(0-inf): 9600 ng·h/mL
  half-life: 2.45 h
  MRT inf: 2.55 h
[1]; rat, plasma, po, 20 mg/kg, rats, intragastric 20 mg/kg, individual animals 4-6, read-out: AUC0-t
  AUC0-t: 9590 ng·h/mL
[1]; rat, plasma, po, 20 mg/kg, rats, intragastric 20 mg/kg, individual animals 4-6, read-out: Cmax
  Cmax: 3070 ng/mL
[1]; rat, plasma, po, 20 mg/kg, rats, intragastric 20 mg/kg, individual animals 4-6, read-out: Tmax
  Tmax: 0.5 h
[1]; [6]
  AUC(0-inf): 8790 ng·h/mL
  half-life: 2.49 h
  MRT inf: 2.72 h
[1]; rat, plasma, po, 20 mg/kg, rats, intragastric 20 mg/kg, mean, read-out: Tmax
  Tmax: 0.833 h
[1]; [7]
  AUC0-t: 10100 ng·h/mL and 6710 ng·h/mL
  AUC0-∞: 10100 ng·h/mL and 6720 ng·h/mL
  Cmax: 3130 ng/mL and 2070 ng/mL
  MRT0-∞: 2.62 h and 3.00 h
  t1/2: 2.5 h and 2.51 h
[1]; rats, intravenous 2 mg/kg
  clearance classification: low clearance drug
  plasma clearance as share of rat liver blood flow (about 55 mL/min/kg): 15.7%
[1]; rats, intravenous 2 mg/kg, individual animals 1-3, listed as DC411151, 2 mg/kg
  AUC0-t: 4030 ng·h/mL and 3960 ng·h/mL
